# Measured values published in ChEMBL document CHEMBL5291721, “A preclinical secondary pharmacology resource illuminates target-adverse drug reaction associations of marketed drugs” (Nat Commun, 2023).
# What was measured:
# D(3) dopamine receptor = D(3) dopamine receptor (Homo sapiens, UniProt P35462)
# [1] = molecular target: T1, 5-hydroxytryptamine receptor 3A (Homo sapiens, UniProt P46098); type: functional
# T1 sequence (P46098 whole entry): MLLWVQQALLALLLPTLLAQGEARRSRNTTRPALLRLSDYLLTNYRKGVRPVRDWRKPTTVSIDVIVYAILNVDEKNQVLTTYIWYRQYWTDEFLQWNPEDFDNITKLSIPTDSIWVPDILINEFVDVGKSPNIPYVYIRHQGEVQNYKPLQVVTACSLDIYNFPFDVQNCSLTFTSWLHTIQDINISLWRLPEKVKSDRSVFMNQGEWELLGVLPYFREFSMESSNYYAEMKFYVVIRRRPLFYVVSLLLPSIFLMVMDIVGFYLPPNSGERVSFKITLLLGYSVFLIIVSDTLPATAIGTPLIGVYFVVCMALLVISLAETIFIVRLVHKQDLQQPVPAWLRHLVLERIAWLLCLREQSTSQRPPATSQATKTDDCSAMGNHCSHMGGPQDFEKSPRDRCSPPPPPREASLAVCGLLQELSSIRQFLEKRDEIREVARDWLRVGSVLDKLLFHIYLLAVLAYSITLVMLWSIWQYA
# [2] = molecular target: T2, Alpha-2A adrenergic receptor (Homo sapiens, UniProt P08913); type: functional, cell-based
# T2 sequence (P08913 whole entry): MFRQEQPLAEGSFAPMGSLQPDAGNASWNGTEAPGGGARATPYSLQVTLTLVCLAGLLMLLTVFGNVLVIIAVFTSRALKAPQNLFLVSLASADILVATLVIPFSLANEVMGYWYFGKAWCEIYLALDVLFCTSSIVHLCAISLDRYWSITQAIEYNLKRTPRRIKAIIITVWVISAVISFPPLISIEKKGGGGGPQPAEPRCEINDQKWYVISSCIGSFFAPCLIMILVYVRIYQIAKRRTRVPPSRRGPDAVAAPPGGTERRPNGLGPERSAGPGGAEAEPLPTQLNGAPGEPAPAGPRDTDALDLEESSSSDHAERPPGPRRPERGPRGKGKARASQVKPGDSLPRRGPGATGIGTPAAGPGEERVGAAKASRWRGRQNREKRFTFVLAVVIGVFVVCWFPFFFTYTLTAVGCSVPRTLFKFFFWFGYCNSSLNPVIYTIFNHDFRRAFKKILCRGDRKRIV
# [3] = molecular target: cGMP-inhibited 3',5'-cyclic phosphodiesterase 3A (Homo sapiens, UniProt Q14432); type: functional
# Adenosine receptor A2a = Adenosine receptor A2a (Homo sapiens, UniProt P29274)
# [4] = molecular target: Sodium-dependent noradrenaline transporter (Homo sapiens, UniProt P23975)
# [5] = molecular target: Gamma-aminobutyric acid receptor subunit alpha-1 (Rattus norvegicus, UniProt P62813); type: functional
# [6] = molecular target: T3, Alpha-2C adrenergic receptor (Homo sapiens, UniProt P18825); type: functional
# T3 sequence (P18825 whole entry): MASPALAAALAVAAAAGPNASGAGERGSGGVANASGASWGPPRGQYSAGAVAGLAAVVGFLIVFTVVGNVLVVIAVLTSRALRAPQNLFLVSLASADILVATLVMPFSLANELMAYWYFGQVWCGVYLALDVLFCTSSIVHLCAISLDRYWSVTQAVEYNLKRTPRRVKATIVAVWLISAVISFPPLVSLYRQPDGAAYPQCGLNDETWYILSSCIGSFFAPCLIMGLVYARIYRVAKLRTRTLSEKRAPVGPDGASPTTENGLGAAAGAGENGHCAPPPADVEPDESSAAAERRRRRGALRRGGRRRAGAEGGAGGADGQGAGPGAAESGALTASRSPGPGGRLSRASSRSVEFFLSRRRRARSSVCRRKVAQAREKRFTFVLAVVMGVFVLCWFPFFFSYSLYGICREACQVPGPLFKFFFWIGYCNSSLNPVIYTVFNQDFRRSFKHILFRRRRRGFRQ
# [7] = molecular target: T4, Equilibrative nucleoside transporter 1 (Homo sapiens, UniProt Q99808)
# T4 sequence (Q99808 whole entry): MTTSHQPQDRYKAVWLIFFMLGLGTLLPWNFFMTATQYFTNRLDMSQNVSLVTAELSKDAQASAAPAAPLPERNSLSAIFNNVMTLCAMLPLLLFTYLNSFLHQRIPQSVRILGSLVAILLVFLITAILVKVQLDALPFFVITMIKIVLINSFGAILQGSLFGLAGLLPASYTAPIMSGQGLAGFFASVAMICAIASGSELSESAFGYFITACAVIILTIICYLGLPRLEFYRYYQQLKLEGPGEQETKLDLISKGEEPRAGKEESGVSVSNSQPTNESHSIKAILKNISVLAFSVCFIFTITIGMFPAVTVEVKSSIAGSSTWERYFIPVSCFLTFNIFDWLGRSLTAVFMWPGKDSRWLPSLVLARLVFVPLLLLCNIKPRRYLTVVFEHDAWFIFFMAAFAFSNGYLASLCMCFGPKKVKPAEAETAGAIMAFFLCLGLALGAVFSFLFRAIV
# Motilin receptor = Motilin receptor (Homo sapiens, UniProt O43193)
# [8] = molecular target: 3',5'-cyclic-AMP phosphodiesterase 4D (Homo sapiens, UniProt Q08499); type: functional
# Melanocortin receptor 3 = Melanocortin receptor 3 (Homo sapiens, UniProt P41968)
# [9] = molecular target: 5-hydroxytryptamine receptor 2B (Homo sapiens, UniProt P41595); type: functional, cell-based
# [10] = molecular target: T5, Type-1 angiotensin II receptor (Homo sapiens, UniProt P30556)
# T5 sequence (P30556 whole entry): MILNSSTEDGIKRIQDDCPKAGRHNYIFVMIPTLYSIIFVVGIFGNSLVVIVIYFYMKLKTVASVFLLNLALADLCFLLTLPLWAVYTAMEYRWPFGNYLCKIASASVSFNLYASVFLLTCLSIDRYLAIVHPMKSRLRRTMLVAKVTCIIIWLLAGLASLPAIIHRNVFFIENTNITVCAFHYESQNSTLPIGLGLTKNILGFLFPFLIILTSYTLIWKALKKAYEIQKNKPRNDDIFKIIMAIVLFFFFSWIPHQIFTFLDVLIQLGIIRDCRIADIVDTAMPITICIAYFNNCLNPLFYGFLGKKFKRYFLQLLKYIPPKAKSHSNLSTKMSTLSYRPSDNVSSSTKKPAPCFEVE
# [11] = molecular target: Voltage-gated inwardly rectifying potassium channel KCNH2 (Homo sapiens, UniProt Q12809); type: functional; details: read-out: AC50
# [12] = molecular target: Neuronal acetylcholine receptor subunit alpha-4 (Homo sapiens, UniProt P43681)
# Also: assay procedure not described here.
# Sequence of Gamma-aminobutyric acid receptor subunit alpha-1 (P62813 whole entry): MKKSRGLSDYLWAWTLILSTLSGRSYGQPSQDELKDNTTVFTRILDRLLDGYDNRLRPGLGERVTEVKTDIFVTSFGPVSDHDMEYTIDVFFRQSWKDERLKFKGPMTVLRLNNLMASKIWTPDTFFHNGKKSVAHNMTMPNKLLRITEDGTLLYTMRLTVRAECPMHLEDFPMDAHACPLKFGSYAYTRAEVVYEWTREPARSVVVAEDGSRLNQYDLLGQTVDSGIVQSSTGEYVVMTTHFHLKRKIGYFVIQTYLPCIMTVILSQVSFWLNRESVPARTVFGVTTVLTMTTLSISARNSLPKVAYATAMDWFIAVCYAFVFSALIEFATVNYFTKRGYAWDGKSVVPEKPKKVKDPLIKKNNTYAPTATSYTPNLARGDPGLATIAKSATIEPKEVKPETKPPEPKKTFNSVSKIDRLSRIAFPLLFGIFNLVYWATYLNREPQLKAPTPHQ
# Sequence of Melanocortin receptor 3 (P41968 whole entry): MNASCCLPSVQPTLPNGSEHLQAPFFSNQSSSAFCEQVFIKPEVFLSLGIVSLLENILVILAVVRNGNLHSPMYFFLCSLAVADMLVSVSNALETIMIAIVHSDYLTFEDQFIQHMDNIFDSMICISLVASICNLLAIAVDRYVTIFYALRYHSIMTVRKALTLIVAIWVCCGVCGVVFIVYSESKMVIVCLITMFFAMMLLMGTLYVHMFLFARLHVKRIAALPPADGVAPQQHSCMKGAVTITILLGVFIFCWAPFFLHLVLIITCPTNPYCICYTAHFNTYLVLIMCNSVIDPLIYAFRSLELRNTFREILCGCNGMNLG
# Sequence of 3',5'-cyclic-AMP phosphodiesterase 4D (Q08499 whole entry): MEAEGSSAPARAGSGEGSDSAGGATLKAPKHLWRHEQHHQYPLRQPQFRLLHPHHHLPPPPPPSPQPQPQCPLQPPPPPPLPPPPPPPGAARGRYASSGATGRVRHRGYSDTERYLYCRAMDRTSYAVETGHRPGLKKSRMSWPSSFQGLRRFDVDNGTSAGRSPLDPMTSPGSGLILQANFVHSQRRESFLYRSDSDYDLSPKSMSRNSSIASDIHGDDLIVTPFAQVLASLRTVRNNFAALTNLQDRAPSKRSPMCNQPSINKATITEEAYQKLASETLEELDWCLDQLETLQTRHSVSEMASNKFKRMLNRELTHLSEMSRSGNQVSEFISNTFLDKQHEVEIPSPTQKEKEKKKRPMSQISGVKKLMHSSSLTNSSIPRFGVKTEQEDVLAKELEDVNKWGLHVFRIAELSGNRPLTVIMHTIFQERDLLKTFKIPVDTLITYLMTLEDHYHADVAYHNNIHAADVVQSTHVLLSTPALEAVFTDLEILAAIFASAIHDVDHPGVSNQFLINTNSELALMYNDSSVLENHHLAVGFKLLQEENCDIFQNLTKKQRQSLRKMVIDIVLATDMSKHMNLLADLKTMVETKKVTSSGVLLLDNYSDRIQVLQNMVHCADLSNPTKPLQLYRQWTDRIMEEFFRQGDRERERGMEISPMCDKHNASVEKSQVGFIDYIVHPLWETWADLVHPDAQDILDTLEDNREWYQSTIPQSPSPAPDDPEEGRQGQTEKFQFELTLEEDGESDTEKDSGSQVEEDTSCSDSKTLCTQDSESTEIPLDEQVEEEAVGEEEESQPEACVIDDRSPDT
# Sequence of 5-hydroxytryptamine receptor 2B (P41595 whole entry): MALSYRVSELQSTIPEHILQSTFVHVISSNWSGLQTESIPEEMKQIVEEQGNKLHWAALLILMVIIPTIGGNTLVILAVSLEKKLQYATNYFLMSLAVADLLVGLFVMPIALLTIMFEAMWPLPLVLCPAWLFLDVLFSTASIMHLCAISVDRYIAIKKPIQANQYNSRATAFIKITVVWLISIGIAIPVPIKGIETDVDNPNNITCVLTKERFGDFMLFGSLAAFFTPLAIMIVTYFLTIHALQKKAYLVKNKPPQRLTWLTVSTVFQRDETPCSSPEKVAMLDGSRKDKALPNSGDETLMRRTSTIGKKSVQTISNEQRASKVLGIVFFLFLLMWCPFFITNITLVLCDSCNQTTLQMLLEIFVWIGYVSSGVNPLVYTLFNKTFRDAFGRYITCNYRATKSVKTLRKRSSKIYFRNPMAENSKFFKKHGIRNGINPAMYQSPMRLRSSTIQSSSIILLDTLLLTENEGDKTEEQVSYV
# Sequence of Adenosine receptor A2a (P29274 whole entry): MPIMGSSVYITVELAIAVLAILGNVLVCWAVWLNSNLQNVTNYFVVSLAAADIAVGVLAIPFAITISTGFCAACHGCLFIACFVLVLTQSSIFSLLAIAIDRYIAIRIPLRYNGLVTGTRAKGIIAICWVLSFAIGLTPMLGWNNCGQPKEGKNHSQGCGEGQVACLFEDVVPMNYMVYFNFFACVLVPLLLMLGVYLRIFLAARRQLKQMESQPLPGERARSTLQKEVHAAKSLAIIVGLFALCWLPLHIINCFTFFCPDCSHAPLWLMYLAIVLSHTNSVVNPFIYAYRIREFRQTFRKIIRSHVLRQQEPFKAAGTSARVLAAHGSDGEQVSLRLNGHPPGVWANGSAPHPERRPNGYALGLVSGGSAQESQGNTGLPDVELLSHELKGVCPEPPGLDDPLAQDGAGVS
# Sequence of cGMP-inhibited 3',5'-cyclic phosphodiesterase 3A (Q14432 whole entry): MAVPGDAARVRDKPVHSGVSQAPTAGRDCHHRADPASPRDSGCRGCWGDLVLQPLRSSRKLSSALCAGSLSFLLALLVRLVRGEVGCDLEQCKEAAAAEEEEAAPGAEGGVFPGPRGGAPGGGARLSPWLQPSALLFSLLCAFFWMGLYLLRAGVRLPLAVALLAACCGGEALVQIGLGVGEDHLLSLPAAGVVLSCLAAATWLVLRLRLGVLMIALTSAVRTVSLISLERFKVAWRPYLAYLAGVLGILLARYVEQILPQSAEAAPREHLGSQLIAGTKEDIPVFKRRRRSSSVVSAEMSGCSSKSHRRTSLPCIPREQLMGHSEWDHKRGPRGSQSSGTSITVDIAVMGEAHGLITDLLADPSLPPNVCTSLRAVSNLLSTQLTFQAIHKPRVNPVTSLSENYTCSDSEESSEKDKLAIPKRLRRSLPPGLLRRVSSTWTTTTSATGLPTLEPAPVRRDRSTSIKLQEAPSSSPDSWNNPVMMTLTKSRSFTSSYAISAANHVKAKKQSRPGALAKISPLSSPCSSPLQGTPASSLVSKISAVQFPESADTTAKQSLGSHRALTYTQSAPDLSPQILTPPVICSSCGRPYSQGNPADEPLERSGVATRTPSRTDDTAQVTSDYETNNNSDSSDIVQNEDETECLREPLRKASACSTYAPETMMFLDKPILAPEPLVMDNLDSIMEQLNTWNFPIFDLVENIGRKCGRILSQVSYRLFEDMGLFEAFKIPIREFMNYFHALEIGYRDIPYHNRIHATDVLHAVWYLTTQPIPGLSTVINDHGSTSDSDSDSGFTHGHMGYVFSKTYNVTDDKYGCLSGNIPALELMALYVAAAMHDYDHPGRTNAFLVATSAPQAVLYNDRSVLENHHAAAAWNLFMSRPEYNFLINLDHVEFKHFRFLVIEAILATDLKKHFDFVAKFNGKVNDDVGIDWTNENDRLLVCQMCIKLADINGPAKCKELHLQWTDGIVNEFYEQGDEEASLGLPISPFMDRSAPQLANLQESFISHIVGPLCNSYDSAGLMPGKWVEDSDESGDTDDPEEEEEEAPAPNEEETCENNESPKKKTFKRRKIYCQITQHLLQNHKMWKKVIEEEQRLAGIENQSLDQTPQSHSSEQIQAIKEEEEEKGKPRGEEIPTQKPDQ
# Sequence of Voltage-gated inwardly rectifying potassium channel KCNH2 (Q12809 whole entry): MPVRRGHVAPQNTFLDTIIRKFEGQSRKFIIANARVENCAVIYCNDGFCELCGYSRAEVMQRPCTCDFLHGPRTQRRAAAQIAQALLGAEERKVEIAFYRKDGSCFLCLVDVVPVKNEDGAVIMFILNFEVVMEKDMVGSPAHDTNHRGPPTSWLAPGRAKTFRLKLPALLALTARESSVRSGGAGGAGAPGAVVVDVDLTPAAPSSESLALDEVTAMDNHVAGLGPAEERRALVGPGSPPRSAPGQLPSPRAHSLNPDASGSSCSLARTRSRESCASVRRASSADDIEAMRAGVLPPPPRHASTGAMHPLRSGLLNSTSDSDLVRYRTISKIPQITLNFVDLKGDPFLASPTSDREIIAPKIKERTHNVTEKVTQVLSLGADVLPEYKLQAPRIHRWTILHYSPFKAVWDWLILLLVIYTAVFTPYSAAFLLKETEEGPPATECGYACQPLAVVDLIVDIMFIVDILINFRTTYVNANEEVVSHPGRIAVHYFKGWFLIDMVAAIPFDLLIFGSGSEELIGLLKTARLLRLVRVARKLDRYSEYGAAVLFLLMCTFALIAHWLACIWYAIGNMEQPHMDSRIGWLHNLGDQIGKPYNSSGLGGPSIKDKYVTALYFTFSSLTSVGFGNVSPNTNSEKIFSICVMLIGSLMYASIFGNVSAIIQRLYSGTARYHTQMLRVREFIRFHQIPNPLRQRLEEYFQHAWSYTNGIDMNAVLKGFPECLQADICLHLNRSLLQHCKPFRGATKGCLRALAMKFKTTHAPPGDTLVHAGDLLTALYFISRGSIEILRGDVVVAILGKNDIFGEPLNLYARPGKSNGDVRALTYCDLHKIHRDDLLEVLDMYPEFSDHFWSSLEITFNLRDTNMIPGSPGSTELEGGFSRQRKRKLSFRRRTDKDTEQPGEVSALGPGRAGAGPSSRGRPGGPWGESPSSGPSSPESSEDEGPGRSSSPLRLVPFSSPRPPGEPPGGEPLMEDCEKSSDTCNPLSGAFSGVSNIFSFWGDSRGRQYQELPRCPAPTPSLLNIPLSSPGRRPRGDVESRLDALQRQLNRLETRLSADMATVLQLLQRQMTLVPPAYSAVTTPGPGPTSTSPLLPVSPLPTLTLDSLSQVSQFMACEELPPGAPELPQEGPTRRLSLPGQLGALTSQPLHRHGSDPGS
AC50 (D(3) dopamine receptor),AC50 [1],AC50 [2],AC50 [3],AC50 (Adenosine receptor A2a),AC50 [4],AC50 [5],AC50 [6],AC50 [7],AC50 (Motilin receptor),AC50 [8],AC50 (Melanocortin receptor 3),AC50 [9],AC50 [10],AC50 [12],Compound,AC50 [11]
> 30 µM,> 10 µM,> 10 µM,18 µM,> 30 µM,12.9 µM,> 10 µM,> 10 µM,> 30 µM,> 10 µM,> 30 µM,> 10 µM,> 10 µM,> 10 µM,> 10 µM,Cc1ccc(C(=O)c2cc(O)c(O)c([N+](=O)[O-])c2)cc1 [TOLCAPONE],1.95 µM
> 30 µM,> 30 µM,> 10 µM,> 30 µM,> 10 µM,> 10 µM,> 10 µM,> 10 µM,> 10 µM,> 10 µM,> 30 µM,> 10 µM,> 10 µM,> 10 µM,> 10 µM,NC[C@H]1CC[C@H](C(=O)O)CC1 [TRANEXAMIC ACID],> 30 µM
> 30 µM,> 30 µM,> 30 µM,> 30 µM,> 30 µM,> 30 µM,> 30 µM,> 30 µM,> 30 µM,> 30 µM,> 30 µM,> 30 µM,> 30 µM,> 30 µM,> 30 µM,CCCS(=O)(=O)Nc1ccc(F)c(C(=O)c2c[nH]c3ncc(-c4ccc(Cl)cc4)cc23)c1F [VEMURAFENIB],> 30 µM
